Measured values as given in patent publication US20130288989A1, “NEW USE OF CHEMICAL INGREDIENTS IN CYNOMORIUM AS PHYTOESTROGEN” (TIANJIN UNIVERSITY OF TRADITIONAL CHINESE MEDICINE, priority 2010, published 2013).
“Also recorded” adds a separate entry of the source.

What was measured:
Format in all cases: cell-based
ERβ = molecular target: T1, ERβ (Homo sapiens, UniProt Q92731); experiment: ERβ luciferase reporter gene transcription activation in transfected Hela cells; conditions: for ERβ (% of the control) mean ± S.D. / ERβ (% of estradiol): Hela cells; for ERβ (% of the control) mean ± S.D.: 24 h; for ERβ (% of estradiol): estradiol at 10^−8M; for concentration at which the transcriptional activity of ERβ is agonized: luciferase reporter gene
T1 construct: expressed in transfected cells; host or cells: Hela cells (ER expression free)
Source text: (§1) Actually, estrogens show their biological activity by regulating estrogen responding genetic transcription.
(§2) Formulation of sample solutions of catechin, (−)epicatechin-3-O-gallate, naringenin-4′-O-glucoside, phlorizin, emodin, chrysophanol (separately obtained from Example 1):
(§3) Catechin, (−)epicatechin-3-O-gallate, naringenin-4′-O-glucoside, phlorizin, emodin, chrysophanol in corresponding weights were separately weighed precisely, than added with DMSO for dissolution, the corresponding sample solution high dose groups (10 μM or 1 μM), were diluted in certain times to separately obtain low dose groups (1 μM to 0.001 μM).
(§4) Under condition of 37° C. and 5% CO2, Hela cells were cultured in phenol red-free high sugar DMEM culture medium containing 10% calf serum in incubator, the cells were spread in 60% density on 96-well plate when cell density was about 90%, each well was added with 150 ul of phenol red-free DMEM culture medium containing 10% serum, cultivation was performed overnight. To each well of the 96-well plate, 100 ul of serum-free DMEM culture medium and 0.4 μg plasmid (ptk-ERE-luc 2 μg, tk-Renila 1 μg, ERα or ERβ 1 μg) were used for transfection. After 6 h of transfection, each well was added with 150 ul of serum-free phenol red-free DMEM culture medium. Three wells were selected form each group, added with 10^−8M estradiol E2, and substance to be tested in different concentrations, 15 ul/well (sample 4-5 concentration gradient groups), continuously cultured under condition of 37° C., 5% CO2 for 24 h. After 24 h, each well was added with 80 μl of cell disruption solution, and the cells were subjected to freeze thawing once to be sufficiently disrupted. As for the cell lysis solution of each well, its activities to firefly luciferase and Renila luciferase were separately measured.

ERα = molecular target: T2, ERα (Homo sapiens, UniProt P03372); experiment: ERα luciferase reporter gene transcription activation in transfected Hela cells; conditions: for ERα (% of the control) mean ± S.D. / ERα (% of estradiol): Hela cells; for ERα (% of the control) mean ± S.D.: 24 h; for ERα (% of estradiol): estradiol at 10^−8M; for concentration at which the transcriptional activity of ERα is agonized: luciferase reporter gene
T2 construct: expressed in transfected cells; host or cells: Hela cells (ER expression free)
T2 sequence (P03372 1-595): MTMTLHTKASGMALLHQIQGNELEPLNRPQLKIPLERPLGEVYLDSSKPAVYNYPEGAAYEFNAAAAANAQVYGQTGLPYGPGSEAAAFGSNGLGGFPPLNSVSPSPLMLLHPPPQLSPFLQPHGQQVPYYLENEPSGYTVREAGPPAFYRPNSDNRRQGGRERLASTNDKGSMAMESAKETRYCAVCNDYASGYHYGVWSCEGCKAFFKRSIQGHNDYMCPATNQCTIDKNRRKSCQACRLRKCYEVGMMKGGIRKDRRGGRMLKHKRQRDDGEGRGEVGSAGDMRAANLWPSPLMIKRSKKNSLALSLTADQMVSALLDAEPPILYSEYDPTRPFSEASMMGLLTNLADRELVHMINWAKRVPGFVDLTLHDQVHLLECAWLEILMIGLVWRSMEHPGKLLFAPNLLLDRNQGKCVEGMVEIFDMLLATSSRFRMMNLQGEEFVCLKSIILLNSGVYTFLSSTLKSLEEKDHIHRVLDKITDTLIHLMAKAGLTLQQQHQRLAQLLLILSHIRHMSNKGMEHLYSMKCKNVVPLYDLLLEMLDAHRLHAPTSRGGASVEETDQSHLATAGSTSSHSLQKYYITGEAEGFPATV
Source text: as §1, §2, §3, §4

estrogen receptor = experiment: Estrogen receptor activation test: overall estrogen activity and ERβ versus ERα comparison; conditions: for ERβ/ERα (both % of estradiol at 10^−8M): Hela cells; for estrogen activity / estrogen receptor activation (in words): estradiol as positive control; for selectivity to receptor subtypes (ERα vs ERβ): result in words
Method: as §1, §4

T1 sequence (Q92731 whole entry): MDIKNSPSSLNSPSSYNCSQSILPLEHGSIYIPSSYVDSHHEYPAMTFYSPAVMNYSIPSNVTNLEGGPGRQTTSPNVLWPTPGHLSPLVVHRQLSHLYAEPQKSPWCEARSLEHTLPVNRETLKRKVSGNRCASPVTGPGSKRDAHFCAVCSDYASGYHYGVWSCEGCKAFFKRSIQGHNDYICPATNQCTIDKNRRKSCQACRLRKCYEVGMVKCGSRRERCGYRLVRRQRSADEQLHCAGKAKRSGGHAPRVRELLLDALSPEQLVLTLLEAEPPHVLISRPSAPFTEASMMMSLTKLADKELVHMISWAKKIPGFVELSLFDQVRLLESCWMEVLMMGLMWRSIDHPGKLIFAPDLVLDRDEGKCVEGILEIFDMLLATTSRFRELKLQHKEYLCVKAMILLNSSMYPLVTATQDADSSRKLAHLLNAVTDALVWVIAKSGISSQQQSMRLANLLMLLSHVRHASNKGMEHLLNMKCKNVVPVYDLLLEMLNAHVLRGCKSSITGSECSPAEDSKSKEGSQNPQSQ

Compound	ERβ (% of the control) mean ± S.D. (ERβ; 10^−5 M)	ERβ (% of estradiol) (ERβ; 10^−5 M)	ERβ (% of the control) mean ± S.D. (ERβ; 10^−6 M)	ERβ (% of estradiol) (ERβ; 10^−6 M)	ERβ (% of the control) mean ± S.D. (ERβ; 10^−7 M)	ERβ (% of estradiol) (ERβ; 10^−7 M)	ERβ (% of the control) mean ± S.D. (ERβ; 10^−8 M)	ERβ (% of estradiol) (ERβ; 10^−8 M)	concentration at which the transcriptional activity of ERβ is agonized (ERβ)	ERα (% of the control) mean ± S.D. (ERα; 10^−5 M)	ERα (% of estradiol) (ERα; 10^−5 M)	ERα (% of the control) mean ± S.D. (ERα; 10^−6 M)	ERα (% of estradiol) (ERα; 10^−6 M)	ERα (% of the control) mean ± S.D. (ERα; 10^−7 M)	ERα (% of estradiol) (ERα; 10^−7 M)	ERα (% of the control) mean ± S.D. (ERα; 10^−8 M)	ERα (% of estradiol) (ERα; 10^−8 M)	concentration at which the transcriptional activity of ERα is agonized (ERα)	ERβ/ERα (both % of estradiol at 10^−8M) (estrogen receptor; sample 10^−5 M)	ERβ/ERα (both % of estradiol at 10^−8M) (estrogen receptor; sample 10^−6 M)	further results
O=C(CCc1ccc(O)cc1)c1c(O)cc(O)cc1O[C@@H]1O[C@H](CO)[C@@H](O)[C@H](O)[C@H]1O [Phlorizin, phlorizin]	147.95 ± 10.29 % of the control	(80.17) % of estradiol	133.79 ± 5.45 % of the control	(72.50) % of estradiol	116.14 ± 8.86 % of the control	(62.93) % of estradiol	109.38 ± 8.72 % of the control	(59.27) % of estradiol	10^−6-10^−5 M	137.71 ± 8.44 % of the control	(72.38) % of estradiol	122.09 ± 11.33 % of the control	(64.17) % of estradiol	118.40 ± 4.20 % of the control	(62.23) % of estradiol	105.43 ± 13.57 % of the control	(55.41) % of estradiol	10^−6-10^−5 M	1.11	1.13	ERβ/ERα (both % of estradiol at 10^−8M) (estrogen receptor; sample 10^−7 M): 1.01; ERβ/ERα (both % of estradiol at 10^−8M) (estrogen receptor; sample 10^−8 M): 1.07; estrogen activity / estrogen receptor activation (in words) (estrogen receptor): show relevance to estrogen receptor activation; also recorded: potent activity of estrogen; selectivity to receptor subtypes (ERα vs ERβ) (estrogen receptor): no significant selectivity to receptor subtypes
catechin	115.59 ± 13.39 % of the control	(59.86) % of estradiol	103.71 ± 9.07 % of the control	(53.71) % of estradiol	102.57 ± 1.04 % of the control	(53.12) % of estradiol	101.93 ± 2.27 % of the control	(52.79) % of estradiol	10^−5 M	128.00 ± 8.74 % of the control	(60.23) % of estradiol	108.85 ± 8.87 % of the control	(51.22) % of estradiol	106.72 ± 12.84 % of the control	(50.22) % of estradiol	102.89 ± 10.21 % of the control	(48.42) % of estradiol	10^−5 M	1.28	1.05	ERβ/ERα (both % of estradiol at 10^−8M) (estrogen receptor; sample 10^−7 M): 1.06; ERβ/ERα (both % of estradiol at 10^−8M) (estrogen receptor; sample 10^−8 M): 1.09; estrogen activity / estrogen receptor activation (in words) (estrogen receptor): show relevance to estrogen receptor activation; also recorded: potent activity of estrogen; selectivity to receptor subtypes (ERα vs ERβ) (estrogen receptor): no significant selectivity to receptor subtypes
